Measurements reported in ChEMBL document CHEMBL5230136, “A review: Biologically active 3,4-heterocycle-fused coumarins” (Eur J Med Chem, 2021).
In brackets after ≈: the same amount, converted by molar mass.

What was measured:
[1] = biological target: Dopamine receptors; D2 & D4 (Homo sapiens, UniProt P14416+P21917); assay: Binding affinity to human D2/D4 receptor assessed as inhibition constant; assay type: protein assay
[2] = system: Xanthomonas citri pv. malvacearum; assay: Antibacterial activity against Xanthomonas citri pv. malvacearum assessed as reduction in bacterial growth; assay type: functional; set-up: concentration or dose not given beside the values
[3] = system: Fusarium verticillioides; assay: Antifungal activity against Fusarium verticillioides assessed as reduction in fungal growth; assay type: functional; set-up: concentration or dose not given beside the values
[4] = system: Rhizoctonia solani; assay: Antifungal activity against Rhizoctonia solani assessed as reduction in fungal growth; assay type: functional; set-up: concentration or dose not given beside the values
[5] = system: Erysiphe necator; assay: Antifungal activity against powdery mildew Erysiphe necator assessed as reduction in fungal growth; assay type: functional; set-up: concentration or dose not given beside the values
[6] = system: Phytophthora; assay: Antimicrobial activity against Phytophthora assessed as reduction in microbial growth; assay type: functional; set-up: concentration or dose not given beside the values
[7] = system: Botrytis cinerea; assay: Antifungal activity against gray mold Botrytis cinerea assessed as reduction in fungal growth; assay type: functional; set-up: concentration or dose not given beside the values
[8] = Antioxidant activity assessed as DPPH radical scavenging activity; assay type: functional
[9] = Antiproliferative activity against human U87 cells assessed as reduction in cell viability by MTT assay; assay type: functional, cell-based, U-87MG ATCC; settings: U-87 MG
[10] = system: Staphylococcus aureus; assay: Antibacterial activity against Staphylococcus aureus assessed as zone of inhibition; assay type: functional
[11] = system: Bacillus cereus; assay: Antibacterial activity against Bacillus cereus assessed as zone of inhibition; assay type: functional
[12] = system: Serratia marcescens; assay: Antibacterial activity against Serratia marcescens assessed as zone of inhibition; assay type: functional
[13] = system: Proteus mirabilis; assay: Antibacterial activity against Proteus mirabilis assessed as zone of inhibition; assay type: functional
[14] = system: Aspergillus ochraceus; assay: Antifungal activity against Aspergillus ochraceus assessed as zone of inhibition; assay type: functional
[15] = system: Penicillium chrysogenum; assay: Antifungal activity against Penicillium chrysogenum assessed as zone of inhibition; assay type: functional
[16] = system: Ehrlich; assay: cells; settings: Mus musculus
Description: Anticancer activity against mouse EAC cells assessed as reduction in cell viability

[17] = system: Botrytis cinerea; assay: Antifungal activity against Botrytis cinerea; assay type: functional, organism-based
[18] = system: Staphylococcus aureus; assay: Antibacterial activity against Staphylococcus aureus assessed as zone of inhibition at 20 mg/ml; assay type: functional; settings: read-out: IZ
[19] = system: Bacillus cereus; assay: Antibacterial activity against Bacillus cereus assessed as zone of inhibition at 20 mg/ml; assay type: functional; settings: read-out: IZ
[20] = system: Escherichia coli; assay: Antibacterial activity against Escherichia coli assessed as zone of inhibition at 20 mg/ml; assay type: functional; settings: read-out: IZ
[21] = system: Pseudomonas aeruginosa; assay: Antibacterial activity against Pseudomonas aeruginosa assessed as zone of inhibition at 20 mg/ml; assay type: functional; settings: read-out: IZ
[22] = system: Serratia marcescens; assay: Antibacterial activity against Serratia marcescens assessed as zone of inhibition at 20 mg/ml; assay type: functional; settings: read-out: IZ
[23] = system: Micrococcus luteus; assay: Antibacterial activity against Micrococcus luteus assessed as zone of inhibition at 20 mg/ml; assay type: functional; settings: read-out: IZ
[24] = system: Candida albicans; assay: Antifungal activity against Candida albicans assessed as zone of inhibition at 20 mg/ml; assay type: functional; settings: read-out: IZ
[25] = system: Trichophyton rubrum; assay: Antifungal activity against Trichophyton rubrum assessed as zone of inhibition at 20 mg/ml; assay type: functional; settings: read-out: IZ
[26] = system: Aspergillus flavus; assay: Antifungal activity against Aspergillus flavus assessed as zone of inhibition at 20 mg/ml; assay type: functional; settings: read-out: IZ
[27] = system: Fusarium oxysporum; assay: Antifungal activity against Fusarium oxysporum assessed as zone of inhibition at 20 mg/ml; assay type: functional; settings: read-out: IZ
[28] = system: Scopulariopsis; assay: Antifungal activity against Scopulariopsis assessed as zone of inhibition at 20 mg/ml; assay type: functional; settings: read-out: IZ
[29] = system: Geotrichum candidum; assay: Antifungal activity against Geotrichum candidum assessed as zone of inhibition at 20 mg/ml; assay type: functional; settings: read-out: IZ
[30] = system: Aspergillus niger; assay: Antifungal activity against Aspergillus niger assessed as zone of inhibition; assay type: functional
[31] = system: Pseudomonas aeruginosa; assay: Antibacterial activity against Pseudomonas aeruginosa assessed as zone of inhibition; assay type: functional
[32] = system: Escherichia coli; assay: Antibacterial activity against Escherichia coli assessed as zone of inhibition; assay type: functional
[33] = system: Klebsiella aerogenes; assay: Antibacterial activity against Enterobacter aerogenes assessed as zone of inhibition; assay type: functional
[34] = system: Penicillium italicum; assay: Antifungal activity against Penicillium italicum assessed as zone of inhibition; assay type: functional
[35] = system: Fusarium oxysporum; assay: Antifungal activity against Fusarium oxysporum assessed as zone of inhibition; assay type: functional

Cc1ccc2c3c(c(=O)oc2c1)CN(Cc1ccc(F)cc1)CC3
Ki [1]: 0.773 µM

Cc1ccc2c3c(c(=O)oc2c1)C(c1ccccc1)N(C)C(c1ccccc1)C3 (stereo not drawn)
Activity [2]: 0%
Activity [3]: 22%
Activity [4]: 15%
Activity [5]: 0%
Activity [6]: 0%
Activity [7]: 0%

COc1ccc(C2SCCNc3c2c(=O)oc2ccccc32)c(O)c1 (stereo not drawn)
IC50 [8]: 120 µM

N#CC1=C(N)Oc2c(c(=O)oc3ccccc23)C12C(=O)N(CCCCBr)c1ccccc12 (stereo not drawn)
IC50 [9]: 78 µM

COc1ccc(CN2CCc3c(c(=O)oc4cc(OC)ccc34)C2)cc1
Ki [1]: 0.069 µM

CN1CCN(Cc2[se]c3c(=O)oc4ccccc4c3c2Br)CC1
IC50 [8]: 87 µM

CC1c2c(c3ccccc3oc2=O)Oc2ncn3nc(CCl)nc3c21 (stereo not drawn)
inhibition zone (IZ) [10]: 20 mm
inhibition zone (IZ) [11]: 22 mm
inhibition zone (IZ) [12]: 21 mm
inhibition zone (IZ) [13]: 20 mm
inhibition zone (IZ) [14]: 18 mm
inhibition zone (IZ) [15]: 19 mm

CC1c2c(c3ccccc3oc2=O)Oc2ncn3nc(-c4ccccc4)nc3c21 (stereo not drawn)
inhibition zone (IZ) [10]: 20 mm
inhibition zone (IZ) [11]: 22 mm
inhibition zone (IZ) [12]: 20 mm
inhibition zone (IZ) [13]: 19 mm
inhibition zone (IZ) [14]: 19 mm
inhibition zone (IZ) [15]: 17 mm

CCc1cccc(-n2c(N)c(C#N)c3c(c(=O)oc4ccc5ccccc5c43)c2=O)c1
IC50 [16]: 246 µM

C=CCOc1ccc2c(c1)oc(=O)c1c(C)coc12
EC50 [17]: 1.72 mg/L (≈ 6.71 µM)

CC(=O)N1C(c2ccccc2)Cc2c(c(=O)oc3c2ccc2ccccc23)C1c1ccccc1 (stereo not drawn)
Activity [2]: 9%
Activity [3]: 6%
Activity [4]: 2%
Activity [5]: 0%
Activity [6]: 0%
Activity [7]: 21%

CCOC(=O)c1sc2c(c1NC(=O)CCl)c(=O)oc1ccccc12
zone of inhibition at 20000 µg/mL [18]: 8 mm
zone of inhibition at 20000 µg/mL [19]: 0 mm
zone of inhibition at 20000 µg/mL [20]: 0 mm
zone of inhibition at 20000 µg/mL [21]: 0 mm
zone of inhibition at 20000 µg/mL [22]: 0 mm
zone of inhibition at 20000 µg/mL [23]: 0 mm
zone of inhibition at 20000 µg/mL [24]: 10 mm
zone of inhibition at 20000 µg/mL [25]: 0 mm
zone of inhibition at 20000 µg/mL [26]: 0 mm
zone of inhibition at 20000 µg/mL [27]: 0 mm
zone of inhibition at 20000 µg/mL [28]: 0 mm
zone of inhibition at 20000 µg/mL [29]: 0 mm

CCSc1nn2c(=N)c3c(=O)oc4ccccc4c3nc2s1
inhibition zone (IZ) [30]: 15 mm

NNC(=O)c1sc2c(c1N)c(=O)oc1ccccc12
zone of inhibition at 20000 µg/mL [18]: 10 mm
zone of inhibition at 20000 µg/mL [19]: 0 mm
zone of inhibition at 20000 µg/mL [20]: 0 mm
zone of inhibition at 20000 µg/mL [21]: 10 mm
zone of inhibition at 20000 µg/mL [22]: 11 mm
zone of inhibition at 20000 µg/mL [23]: 0 mm
zone of inhibition at 20000 µg/mL [24]: 14 mm
zone of inhibition at 20000 µg/mL [25]: 0 mm
zone of inhibition at 20000 µg/mL [26]: 10 mm
zone of inhibition at 20000 µg/mL [27]: 16 mm
zone of inhibition at 20000 µg/mL [28]: 13 mm
zone of inhibition at 20000 µg/mL [29]: 13 mm

O=c1[nH]cc(F)c(=O)[nH]1 [FLUOROURACIL]
IC50 [16]: 0.38 µM

N#CC1=C(N)Oc2c(c(=O)oc3ccc(Br)cc23)C12C(=O)Nc1ccccc12 (stereo not drawn)
IC50 [9]: 78 µM

CCOC(=O)c1sc2c(c1NC(=O)CNc1ccc(C)cc1)c(=O)oc1ccccc12
zone of inhibition at 20000 µg/mL [18]: 0 mm
zone of inhibition at 20000 µg/mL [19]: 0 mm
zone of inhibition at 20000 µg/mL [20]: 0 mm
zone of inhibition at 20000 µg/mL [21]: 0 mm
zone of inhibition at 20000 µg/mL [22]: 0 mm
zone of inhibition at 20000 µg/mL [23]: 0 mm
zone of inhibition at 20000 µg/mL [24]: 13 mm
zone of inhibition at 20000 µg/mL [25]: 0 mm
zone of inhibition at 20000 µg/mL [26]: 0 mm
zone of inhibition at 20000 µg/mL [27]: 0 mm
zone of inhibition at 20000 µg/mL [28]: 0 mm
zone of inhibition at 20000 µg/mL [29]: 8 mm

CCOC(=O)c1sc2c(c1NC(=O)CN1CCOCC1)c(=O)oc1ccccc12
zone of inhibition at 20000 µg/mL [18]: 0 mm
zone of inhibition at 20000 µg/mL [19]: 0 mm
zone of inhibition at 20000 µg/mL [20]: 0 mm
zone of inhibition at 20000 µg/mL [21]: 9 mm
zone of inhibition at 20000 µg/mL [22]: 0 mm
zone of inhibition at 20000 µg/mL [23]: 0 mm
zone of inhibition at 20000 µg/mL [24]: 0 mm
zone of inhibition at 20000 µg/mL [25]: 0 mm
zone of inhibition at 20000 µg/mL [26]: 0 mm
zone of inhibition at 20000 µg/mL [27]: 0 mm
zone of inhibition at 20000 µg/mL [28]: 0 mm
zone of inhibition at 20000 µg/mL [29]: 0 mm

CC1C2=C(N=CNC2N)Oc2c1c(=O)oc1ccccc21 (stereo not drawn)
inhibition zone (IZ) [10]: 21 mm
inhibition zone (IZ) [11]: 22 mm
inhibition zone (IZ) [12]: 20 mm
inhibition zone (IZ) [13]: 19 mm
inhibition zone (IZ) [14]: 14 mm
inhibition zone (IZ) [15]: 12 mm

NC1NC=NC2=C1C(c1ccc(Br)cc1)c1c(c3ccccc3oc1=O)O2 (stereo not drawn)
zone of inhibition at 20000 µg/mL [19]: 22 mm
inhibition zone (IZ) [10]: 29 mm
inhibition zone (IZ) [31]: 18 mm
inhibition zone (IZ) [32]: 21 mm
inhibition zone (IZ) [33]: 20 mm
inhibition zone (IZ) [30]: 14 mm
inhibition zone (IZ) [34]: 16 mm
inhibition zone (IZ) [35]: 18 mm

CC(=O)N1C(c2ccccc2)Cc2c(c(=O)oc3cc(C)ccc23)C1c1ccccc1 (stereo not drawn)
Activity [2]: 18%
Activity [3]: 10%
Activity [4]: 0%
Activity [5]: 52%
Activity [6]: 83%
Activity [7]: 11%

O=NN(CCCl)C(=O)NCCCl [CARMUSTINE]
IC50 [9]: 3.9 mg/L
